Data published in patent publication US9006265B2, “Substituted fused pyrimidinones and dihydropyrimidinones” (Bayer Intellectual Property GmbH, priority 2010, dated 2015).

Key:
ZEAMX [1] = assay: Drought stress test on crop plants in greenhouse, spray application; type: in vivo, Zea mays; conditions: efficacy = percentage reduction in intensity of damage, mean of three results
Method: (§1) Seeds of monocotyledonous and dicotyledonous crop plants were laid out in sandy loam in wood-fiber pots, covered with soil and cultivated in a greenhouse under good growth conditions. The test plants were treated at the early leaf stage (BBCH10-BBCH13). To ensure uniform water supply before commencement of stress, the potted plants were supplied with the maximum amount of water immediately beforehand by dam irrigation and, after application, transferred in plastic inserts in order to prevent subsequent, excessively rapid drying. The inventive compounds, formulated in the form of wettable powders (WP), wettable granules (WG), suspension concentrates (SC) or emulsion concentrates (EC), were sprayed onto the green parts of the plants as an aqueous suspension at an equivalent water application rate of 600 l/ha with addition of 0.2% wetting agent (agrotin). Substance application is followed immediately by stress treatment of the plants (cold or drought stress). For cold stress treatment, the plants were kept under the following controlled conditions: • “day”: 12 hours with illumination at 8° C. • “night”: 12 hours without illumination at 1° C.
(§2) Drought stress was induced by gradual drying out under the following conditions: • “day”: 14 hours with illumination at 26° C. • “night”: 10 hours without illumination at 18° C.
(§3) The duration of the respective stress phases was guided mainly by the state of the untreated (=treated with blank formulation without test compound), stressed control plants and thus varied from crop to crop. It was ended (by re-irrigating or transfer to a greenhouse with good growth conditions) as soon as irreversible damage was observed on the untreated, stressed control plants. In the case of dicotyledonous crops, for example oilseed rape and soybeans, the duration of the drought stress phase varied between 3 and 5 days, in the case of monocotyledonous crops, for example wheat, barley or corn, between 6 and 10 days. The duration of the cold stress phase varied between 12 and 14 days.
(§4) The end of the stress phase was followed by an approx. 5-7-day recovery phase, during which the plants were once again kept under good growth conditions in a greenhouse. In order to rule out any influence of the effects observed by any fungicidal action of the test compounds, it was additionally ensured that the tests proceeded without fungal infection and without infection pressure.
(§5) After the recovery phase had ended, the intensities of damage were rated in visual comparison to untreated, unstressed controls of the same age (in the case of drought stress) or the same growth stage (in the case of cold stress). The intensity of damage was first assessed as a percentage (100%=plants have died, 0%=like control plants). These values were then used to calculate the efficacy of the test compounds (=percentage reduction in the intensity of damage as a result of substance application) by the following formula:
(§6) [formula] EF: efficacy (%) DVus: damage value of the untreated, stressed control DVts: damage value of the plants treated with test compound
(§7) The tables A-1 and B-1 to B-4 below list mean values in each case from three results of the same test.
(§8) Efficacies of selected compounds of the formula (I) under drought stress using the examples of HORVS, BRSNS, ZEAMX und TRZAS: […]

HORVS = assay: as above; type: in vivo, Hordeum vulgare; conditions: dosage 500 g/ha, efficacy = percentage reduction in intensity of damage, mean of three results
Method: Seeds of monocotyledonous and dicotyledonous crop plants were laid out in sandy loam in wood-fiber pots, covered with soil and cultivated in a greenhouse under good growth conditions. The test plants were treated at the early leaf stage (BBCH10-BBCH13). To ensure uniform water supply before commencement of stress, the potted plants were supplied with the maximum amount of water immediately beforehand by dam irrigation and, after application, transferred in plastic inserts in order to prevent subsequent, excessively rapid drying. The inventive compounds, formulated in the form of wettable powders (WP), wettable granules (WG), suspension concentrates (SC) or emulsion concentrates (EC), were sprayed onto the green parts of the plants as an aqueous suspension at an equivalent water application rate of 600 l/ha with addition of 0.2% wetting agent (agrotin). Substance application is followed immediately by stress treatment of the plants (cold or drought stress). […]
After the recovery phase had ended, the intensities of damage were rated in visual comparison to untreated, unstressed controls of the same age (in the case of drought stress) or the same growth stage (in the case of cold stress). The intensity of damage was first assessed as a percentage (100%=plants have died, 0%=like control plants). […]

ZEAMX [2] = assay: Cold stress test on crop plants in greenhouse, spray application; type: in vivo, Zea mays; conditions: efficacy = percentage reduction in intensity of damage, mean of three results
Method: Seeds of monocotyledonous and dicotyledonous crop plants were laid out in sandy loam in wood-fiber pots, covered with soil and cultivated in a greenhouse under good growth conditions. The test plants were treated at the early leaf stage (BBCH10-BBCH13). To ensure uniform water supply before commencement of stress, the potted plants were supplied with the maximum amount of water immediately beforehand by dam irrigation and, after application, transferred in plastic inserts in order to prevent subsequent, excessively rapid drying. The inventive compounds, formulated in the form of wettable powders (WP), wettable granules (WG), suspension concentrates (SC) or emulsion concentrates (EC), were sprayed onto the green parts of the plants as an aqueous suspension at an equivalent water application rate of 600 l/ha with addition of 0.2% wetting agent (agrotin). Substance application is followed immediately by stress treatment of the plants (cold or drought stress). For cold stress treatment, the plants were kept under the following controlled conditions: • “day”: 12 hours with illumination at 8° C. • “night”: 12 hours without illumination at 1° C. The duration of the respective stress phases was guided mainly by the state of the untreated (=treated with blank formulation without test compound), stressed control plants and thus varied from crop to crop. It was ended (by re-irrigating or transfer to a greenhouse with good growth conditions) as soon as irreversible damage was observed on the untreated, stressed control plants. In the case of dicotyledonous crops, for example oilseed rape and soybeans, the duration of the drought stress phase varied between 3 and 5 days, in the case of monocotyledonous crops, for example wheat, barley or corn, between 6 and 10 days. The duration of the cold stress phase varied between 12 and 14 days. The end of the stress phase was followed by an approx. 5-7-day recovery phase, during which the plants were once again kept under good growth conditions in a greenhouse. In order to rule out any influence of the effects observed by any fungicidal action of the test compounds, it was additionally ensured that the tests proceeded without fungal infection and without infection pressure. After the recovery phase had ended, the intensities of damage were rated in visual comparison to untreated, unstressed controls of the same age (in the case of drought stress) or the same growth stage (in the case of cold stress). The intensity of damage was first assessed as a percentage (100%=plants have died, 0%=like control plants). These values were then used to calculate the efficacy of the test compounds (=percentage reduction in the intensity of damage as a result of substance application) by the following formula: [formula] EF: efficacy (%) DVus: damage value of the untreated, stressed control DVts: damage value of the plants treated with test compound The tables A-1 and B-1 to B-4 below list mean values in each case from three results of the same test. Efficacies of selected compounds of the formula (I) under cold stress using the example of ZEAMX: […]

BRSNS = assay: Drought stress test on crop plants in greenhouse, spray application; type: in vivo, Brassica napes; conditions: efficacy = percentage reduction in intensity of damage, mean of three results
Method: as §1, §2, §3, §4, §5, §6, §7, §8

TRZAS = assay: as above; type: in vivo, Triticum aestivum; conditions: efficacy = percentage reduction in intensity of damage, mean of three results
Method: as §1, §2, §3, §4, §5, §6, §7, §8

Question: Which “EF (ZEAMX)” value (ZEAMX [1]; dosage 500 g/ha) does the source give for `CC(C)c1nc2ccccc2c(=O)[nH]1` [I.1-15] here?
Answer: The value was >5%.

Question: Which “EF (ZEAMX)” value (ZEAMX [1]; dosage 500 g/ha) does the source give for `O=c1[nH]c(-c2nc[nH]n2)nc2ccccc12` [I.1-30] here?
Answer: Its value is >5%.

Question: For `Cc1nc2c([N+](=O)[O-])cccc2c(=O)[nH]1` [I.1-32], which “EF (HORVS)” value (HORVS) is on record?
Answer: The value was >5%.

Question: Which “EF (ZEAMX)” value (ZEAMX [2]; dosage 25 g/ha) does the source give for `COc1cccc2c(=O)[nH]c(-c3ccc([N+](=O)[O-])cc3)nc12` [I.1-36] here?
Answer: The value was >5%.

Question: Which “EF (ZEAMX)” value (ZEAMX [1]; dosage 500 g/ha) does the source give for `Cc1ccc(-c2nc3ccccc3c(=O)[nH]2)o1` [I.1-44] here?
Answer: Its value is >5%.

Question: With `Cc1cc(-c2nc3ccccc3c(=O)[nH]2)oc1C` [I.1-45] as the molecule, how does the “EF (ZEAMX)” value (ZEAMX [1]; dosage 500 g/ha) read?
Answer: The value was >5%.

Question: Which “EF (ZEAMX)” value (ZEAMX [1]; dosage 500 g/ha) does the source give for `Cc1nc[nH]c1-c1nc2cc(Cl)ccc2c(=O)[nH]1` [I.1-139] here?
Answer: Its value is >5%.

Question: With `Cc1cccc2c(=O)[nH]c(CCc3ccccc3)nc12` [I.1-145] as the molecule, how does the “EF (BRSNS)” value (BRSNS; dosage 50 g/ha) read?
Answer: The value was >5%.

Question: With `O=c1[nH]c(C2CCCC2)nc2c(O)cccc12` [I.1-148] as the molecule, how does the “EF (ZEAMX)” value (ZEAMX [1]; dosage 500 g/ha) read?
Answer: Its value is >5%.

Question: For `CCCCCc1nc2c(OC)cccc2c(=O)[nH]1` [I.1-153], which “EF (BRSNS)” value (BRSNS; dosage 500 g/ha) is on record?
Answer: Its value is >5%.

Question: What about the “EF (ZEAMX)” value (ZEAMX [1]; dosage 500 g/ha) of the same molecule?
Answer: Its value is >5%.

Question: For `COc1cccc2c(=O)[nH]c(C3CCCC3)nc12` [I.1-157], which “EF (ZEAMX)” value (ZEAMX [1]; dosage 500 g/ha) is on record?
Answer: Its value is >5%.

Question: With `Cc1cc(Cl)cc2c(=O)[nH]c(-c3[nH]ncc3Br)nc12` [I.1-165] as the molecule, how does the “EF (BRSNS)” value (BRSNS; dosage 250 g/ha) read?
Answer: The value was >5%.

Question: What about the “EF (TRZAS)” value (TRZAS; dosage 250 g/ha) of the same molecule?
Answer: The value was >5%.

Question: What about the “EF (ZEAMX)” value (ZEAMX [1]; dosage 250 g/ha) of the same molecule?
Answer: The value was >5%.

Question: For `O=c1[nH]c(CCc2ccccc2)nc2c(Cl)cccc12` [I.1-172], which “EF (ZEAMX)” value (ZEAMX [2]; dosage 25 g/ha) is on record?
Answer: Its value is >5%.

Question: Which “EF (BRSNS)” value (BRSNS; dosage 250 g/ha) does the source give for `O=c1[nH]c(-c2ccc(C#Cc3ccccc3F)o2)nc2cc(Cl)ccc12` [I.1-181] here?
Answer: The value was >5%.

Question: Which results are given for `Cn1cccc1-c1nc2cc(Cl)ccc2c(=O)[nH]1` [I.1-197]?
Answer: EF (TRZAS) (TRZAS; dosage 250 g/ha): >5%; EF (ZEAMX) (ZEAMX [1]; dosage 250 g/ha): >5%

Question: For `O=c1[nH]c(-c2cc(Br)cs2)nc2c(Cl)cccc12` [I.1-201], which “EF (ZEAMX)” value (ZEAMX [1]; dosage 250 g/ha) is on record?
Answer: The value was >5%.

Question: For `O=c1[nH]c(-c2ccc(Br)cc2)nc2c(Cl)cccc12` [I.1-204], which “EF (ZEAMX)” value (ZEAMX [2]; dosage 25 g/ha) is on record?
Answer: The value was >5%.

Question: Which “EF (ZEAMX)” value (ZEAMX [1]; dosage 250 g/ha) does the source give for `O=c1[nH]c(COc2ccccc2)nc2cc(Cl)ccc12` [I.1-303] here?
Answer: Its value is >5%.

Question: With `Cc1ccc2c(=O)[nH]c(-c3ccc(Cl)cc3)nc2c1` [I.1-318] as the molecule, how does the “EF (ZEAMX)” value (ZEAMX [1]; dosage 250 g/ha) read?
Answer: The value was >5%.

Question: With `Cc1cccc2c(=O)[nH]c(/C=C/c3cccnc3)nc12` [I.1-338] as the molecule, how does the “EF (BRSNS)” value (BRSNS; dosage 100 g/ha) read?
Answer: The value was >5%.

Question: And the “EF (TRZAS)” value (TRZAS; dosage 100 g/ha)?
Answer: Its value is >5%.

Question: And the “EF (ZEAMX)” value (ZEAMX [1]; dosage 100 g/ha)?
Answer: Its value is >5%.

Question: For `Cc1cccc2c(=O)[nH]c(-c3ccc(Br)cc3)nc12` [I.1-378], which “EF (TRZAS)” value (TRZAS; dosage 250 g/ha) is on record?
Answer: Its value is >5%.

Question: With `COc1cc2nc(-c3ccoc3)[nH]c(=O)c2cc1OC` [I.1-424] as the molecule, how does the “EF (ZEAMX)” value (ZEAMX [1]; dosage 250 g/ha) read?
Answer: The value was >5%.

Question: For `COc1cc2nc(/C=C/c3cc(OC)c(O)c(OC)c3)[nH]c(=O)c2cc1OC` [I.1-429], which “EF (ZEAMX)” value (ZEAMX [2]; dosage 250 g/ha) is on record?
Answer: Its value is >5%.

Question: With `COc1cc2nc(-c3cccc(C(F)(F)F)c3)[nH]c(=O)c2cc1OC` [I.1-440] as the molecule, how does the “EF (ZEAMX)” value (ZEAMX [2]; dosage 25 g/ha) read?
Answer: The value was >5%.

Question: With `Cc1ccc(-c2nc3c(C)cccc3c(=O)[nH]2)c(Cl)c1` [I.1-505, 2-(2-Chloro-4-methylphenyl)-8-methylquinazolin-4(3H)-one] as the molecule, how does the melting point read?
Answer: Its melting point is 234 °C.

Question: With `Cc1nn2c([nH]c(=O)c3ccccc32)c1-c1ccccc1` [I.3-1] as the molecule, how does the “EF (BRSNS)” value (BRSNS; dosage 250 g/ha) read?
Answer: The value was >5%.
